Data taken from patent publication US7812143B2, “Biomarkers for cancer treatment” (Memorial Sloan-Kettering Cancer Center, priority 2006, dated 2010).

Columns and labels:
[1] = tested on: V600E BRAF tumor cell lines; assay: Treatment of B-RAF mutant tumor cell lines and xenograft models with MEK inhibitors (cyclin D, RB, cell cycle, proliferation); assay type: cell-based; conditions: tumor cell lines and xenograft models with activating B-RAF mutation (V600E BRAF)
Text: Eleven cells lines, including five BRAF mutants, are characterized by their tissue of lineage and mechanism of MAPK activation, were used for the experiments described herein, and are listed in Table 2.

[2] = tested on: V600E B-RAF xenograft models of melanoma and colon carcinoma; assay: Tumor growth in V600E B-RAF xenograft models; conditions: for tumor growth: compared to vehicle-treated mice, several V600E B-RAF xenograft models of melanoma and colon carcinoma; for cyclin D and Ki-67 in tumor samples: western blot and immunohistochemistry of xenograft tumor samples
[3] = tested on: HER2/EGFR (WT BRAF) tumors; assay: Response of HER2/EGFR (WT BRAF) tumors to MEK inhibition, in vitro assays and xenograft models; assay type: cell-based; conditions: for effectiveness at expected target, phosphorylated MAPK: WT BRAF group compared with V600E BRAF tumors; for sensitivity of tumors with high MAPK activity under the control of activated receptors: in vitro assays and xenograft models
Text: Eleven cells lines, including five BRAF mutants, are characterized by their tissue of lineage and mechanism of MAPK activation, were used for the experiments described herein, and are listed in Table 2. All the cell lines have high levels of MAPK activity.

SkMel 28 cells = assay: Affymetrix U133A 2.0 gene expression time course after MEK inhibitor; assay type: cell-based; conditions: 50 nM
Description: SkMel 28 cells (a melanoma cell line with the V600E BRAF mutation) were treated with the MEK inhibitor, PD0325901 (50 nM), for 2, 8, or 24 hours, or no treatment at all (=time 0 hours). Total cellular RNA was analyzed using an Affymetrix U133A 2.0 platform. Pairwise comparisons of gene expression at each individual time point to reference sample (time 0 hours) were performed, and genes were selected using a threshold of two-fold or greater change in either direction. […] Thus, genes which changed greater than or equal to two-fold in either direction in response to PD0325901 compared to control were identified at three time points following MEK inhibition. All genes were assigned to a functional class based on biological process, according to Gene Ontology (GO) classification (FIG. 2). The number of genes changing in each functional classification was assigned a p-value based on the significance of the number of genes changing given the total number of genes changed at that time point, compared to the total number of genes in the GO functional class, and the total number of genes on the chip. An enrichment score was assigned to each functional class, and was defined as the −log 10(p-value).

SkMel 5 cells = assay: Quantitative RT-PCR of relative mRNA levels after MEK inhibitor; assay type: cell-based; conditions: 50 nM; 2, 4, 8 and 24 hrs versus time 0; SkMel 5 (V600E BRAF)
Description: Quantitative RT-PCR was used to determine relative levels of mRNA in cells as a function of time following exposure to the MEK inhibitor (PD0325901 50 nM). SkMel 5 cells were treated with MEK inhibitor (PD0325901 50 nM) for the times indicated (2 hrs, 4 hrs, 8 hrs, and 24 hrs). Following total RNA extraction and an in vitro reverse transcription step, synthesized cDNA was used in a PCR reaction containing pre-designed probe-primer sets purchased from Applied Biosystems and run on an ABI 7500 RT-PCR machine, using software supplied by Applied Biosystems. Relative levels of mRNA compared to the reference sample (time 0) were determined using the ΔΔCT calculation, using HPRT as a housekeeping gene for normalization. In brief, each gene for each sample is assigned a value based on the number of PCR amplification cycles required for the amplified gene product to cross a detection threshold (i.e., a gene detectable at 25 amplification cycles is present in greater starting quantity than a gene product detectable at 30 cycles). The cycle value for each sample for the gene of interest is subtracted from the cycle value for a reference sample (untreated, or time 0), and this value is the delta CT for the gene of interest. […] This is the delta CT for the housekeeping gene. The delta CT (housekeeping gene) is subtracted from the delta CT (gene of interest), and this is the delta delta CT. […]

[4] = tested on: panel of V600E BRAF cell lines; assay: Microarray (SAM) of gene expression, MEK-inhibited versus DMSO control; assay type: cell-based; conditions: 50 nM, 8 hours, false discovery rate 9%
Description: Mean expression of genes was determined for a panel of V600E BRAF cell lines in each of two conditions, MEK-inhibited (PD0325901 50 nM) or DMSO control, both at 8 hours. The panel of V600E BRAF cell lines included 5 melanoma cell lines (SkMel 1, SkMel 5, SkMel 19, SkMel 28, and MALME 3M) and two colorectal carcinoma cell lines (Colo205 and HT29).
Significance analysis of microarray (SAM) methods were used to determine the significance of difference between the two groups of genes (using a false discovery rate of 9%). […] Expression of the genes was also presented as a heatmap representation (FIG. 3B).

[5] = tested on: SkMel 5, SkMel 19, and Colo205; assay: Western blot of relative protein expression after MEK inhibitor; assay type: cell-based; conditions: 50 nM, as a function of time; three V600E BRAF cell lines
Description: Following protein isolation using NP40 1% lysis buffer, Western blot analysis was used to determine relative protein expression in cells as a function of time following exposure to MEK inhibitor (PD0325901 50 nM). […] For the Western Blot analysis, DUSP6 antibody (SantaCruz (#8598)), and SPRY2 antibody (Upstate Cell Signaling Solutions).

| Structure (SMILES) | cell cycle [1] | cyclin D levels [1] | phosphorylation of RB [1] | proliferation [1] | tumor growth [2] | cyclin D and Ki-67 in tumor samples [2] | effectiveness at expected target, phosphorylated MAPK [3] | sensitivity of tumors with high MAPK activity under the control of activated receptors [3] | number of genes changing two-fold or greater in either direction (SkMel 28 cells; 2 hours versus time 0) | number of genes changing two-fold or greater in either direction (SkMel 28 cells; 8 hours versus time 0) | number of genes changing two-fold or greater in either direction (SkMel 28 cells; 24 hours versus time 0) | relative mRNA levels of DUSP6, SPRY2, ETV1, ETV5, and CCND1 (SkMel 5 cells) | genes downregulated [4] | genes upregulated [4] | genes which change significantly in either direction ([4]; 45 probe sets) | relative protein expression of DUSP6 and SPRY2 [5] |
| --- | --- | --- | --- | --- | --- | --- | --- | --- | --- | --- | --- | --- | --- | --- | --- | --- |
| O=C(NOCC1CC1)c1ccc(F)c(F)c1Nc1ccc(I)cc1Cl [CI-1040] | G1 arrest | decline in cyclin D levels | hypophosphorylation of RB | inhibition of proliferation | Tumor growth delay was achieved | decline in both cyclin D and Ki-67 | not measurably different | resistant | – | – | – | – | – | – | – | – |
| O=C(NOC[C@H](O)CO)c1ccc(F)c(F)c1Nc1ccc(I)cc1F [PD0325901] | G1 arrest | decline in cyclin D levels | hypophosphorylation of RB | inhibition of proliferation | Tumor growth delay was achieved | decline in both cyclin D and Ki-67 | not measurably different | resistant | 91 genes | 327 genes | 1191 genes | Decrease in mRNA levels | 31 genes | 4 genes | 35 genes | decrease in protein expression |
